From patent US11472803B2, “7-substituted 1-aryl-naphthyridine-3-carboxylic acid amides and use thereof” (Bayer Aktiengesellschaft, priority 2016, dated 2022)

Target: T1, human M2 receptor (Homo sapiens, UniProt P08172)
T1 construct: expressed in transfected cells; host or cells: CHO-DUKX (CHO-DUKX-M2-GIRK)
T1 sequence (P08172 1-466): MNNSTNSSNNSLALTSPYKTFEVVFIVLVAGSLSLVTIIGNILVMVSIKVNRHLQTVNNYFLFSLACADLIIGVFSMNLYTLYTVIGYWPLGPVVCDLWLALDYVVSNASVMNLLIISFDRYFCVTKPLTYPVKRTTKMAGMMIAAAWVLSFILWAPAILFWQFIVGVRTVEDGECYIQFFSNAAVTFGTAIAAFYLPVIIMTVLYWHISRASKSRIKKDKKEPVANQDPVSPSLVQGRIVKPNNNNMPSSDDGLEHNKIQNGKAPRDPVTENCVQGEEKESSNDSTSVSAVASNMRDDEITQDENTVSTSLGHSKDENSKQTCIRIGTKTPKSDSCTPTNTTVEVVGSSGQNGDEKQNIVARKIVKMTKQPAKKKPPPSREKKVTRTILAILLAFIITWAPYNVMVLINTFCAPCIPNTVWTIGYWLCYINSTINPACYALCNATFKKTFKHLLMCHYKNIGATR
Test: Functional M2-GIRK1/4 activation test: allosteric potency (EC50) and efficiency at EC20 acetylcholine
Type: cell-based
Settings: CHO-DUKX-M2-GIRK cells; for EC50: voltage-sensitive dye, acetylcholine at EC20, in some cases mean of two or more determinations; for Emax / Efficiency: boosting of the acetylcholine effect at EC20 acetylcholine concentration
How it was run: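 CHO-DUKX cells stably expressing human M2 and GIRK1/4; membrane potential tracked with voltage-sensitive dye at room temperature. Compound added 50 s before acetylcholine at its EC20, then hyperpolarization read 60 s. EC50 (allosteric potency) and efficiency (boost of EC20 ACh effect) from 4-parameter Hill fit.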

CC[C@@H](NC(=O)c1cn(-c2c(F)cc(F)cc2F)c2nc(N3C[C@H](O)[C@@H](O)C3)c(F)cc2c1=O)C(F)(F)F [Example 156, 7-[(3S,4S)-3,4-Dihydroxypyrrolidin-1-yl]-6-fluoro-4-oxo-N-[(2R)-1,1,1-trifluorobutan-2-yl]-1-(2,4,6-trifluorophenyl)-1,4-dihydro-1,8-naphthyridine-3-carboxamide]
EC50: 11 nM | Emax: 100%

O=C(N[C@@H](C1CC1)C(F)(F)F)c1cn(-c2c(F)cccc2F)c2nc(N3C[C@@H](O)[C@H](O)C3)c(F)cc2c1=O [Example 2, N-[(1S)-1-Cyclopropyl-2,2,2-trifluoroethyl]-1-(2,6-difluorophenyl)-7-[(3R,4R)-3,4-dihydroxypyrrolidin-1-yl]-6-fluoro-4-oxo-1,4-dihydro-1,8-naphthyridine-3-carboxamide]
EC50: 35.5 nM | Emax: 96%

O=C(NC(C(F)(F)F)C(F)(F)F)c1cn(-c2ncc(F)cc2F)c2nc(N3CCC(CO)(CO)CC3)c(F)cc2c1=O [Example 195, 7-[4,4-bis(hydroxymethyl)piperidin-1-yl]-1-(3,5-difluoropyridin-2-yl)-6-fluoro-N-(1,1,1,3,3,3-hexafluoropropan-2-yl)-4-oxo-1,4-dihydro-1,8-naphthyridine-3-carboxamide]
EC50: 58 nM | Emax: 100%

CC(C)(C)C(NC(=O)c1cn(-c2c(F)cc(F)cc2F)c2nc(N3CC(CO)(CO)C3)c(F)cc2c1=O)C(F)(F)C(F)(F)F (single isomer, unassigned) [Example 214, 7-[3,3-bis(hydroxymethyl)azetidin-1-yl]-6-fluoro-4-oxo-N-[1,1,1,2,2-pentafluoro-4,4-dimethylpentan-3-yl]-1-(2,4,6-trifluorophenyl)-1,4-dihydro-1,8-naphthyridine-3-carboxamide]
EC50: 2.1 nM | Emax: 100%

CC(C)(C)C(NC(=O)c1cn(-c2c(F)cc(F)cc2F)c2nc(N3CC4(COC4)C3)c(F)cc2c1=O)C(F)(F)C(F)(F)F (single isomer, unassigned) [Example 215, 6-Fluoro-7-(2-oxa-6-azaspiro[3.3]hept-6-yl)-4-oxo-N-[1,1,1,2,2-pentafluoro-4,4-dimethylpentan-3-yl]-1-(2,4,6-trifluorophenyl)-1,4-dihydro-1,8-naphthyridine-3-carboxamide]
EC50: 8.6 nM | Efficiency: 100%

CCC(COC(F)(F)F)NC(=O)c1cn(-c2c(F)cc(F)cc2F)c2nc(N3CC[C@H](O)C3)c(F)cc2c1=O (mixture of isomers) [Example 109, 6-Fluoro-7-[(3S)-3-hydroxypyrrolidin-1-yl]-4-oxo-N-[1-(trifluoromethoxy)butan-2-yl]-1-(2,4,6-trifluorophenyl)-1,4-dihydro-1,8-naphthyridine-3-carboxamide]
EC50: 7.7 nM | Emax: 100%

CCC(C)(C)NC(=O)c1cn(-c2c(F)cc(F)cc2Cl)c2nc(N3C[C@@H](O)[C@H](O)C3)c(F)cc2c1=O [Example 73, 1-(2-Chloro-4,6-difluorophenyl)-7-[(3R,4R)-3,4-dihydroxypyrrolidin-1-yl]-6-fluoro-N-(2-methylbutan-2-yl)-4-oxo-1,4-dihydro-1,8-naphthyridine-3-carboxamide]
EC50: 2.7 nM | Emax: 94%

CC(C)(C)NC(=O)c1cn(-c2c(F)cc(F)cc2Cl)c2nc(N3C[C@@H](O)[C@H](O)C3)c(F)cc2c1=O [Example 74, N-tert-Butyl-1-(2-chloro-4,6-difluorophenyl)-7-[(3R,4R)-3,4-dihydroxypyrrolidin-1-yl]-6-fluoro-4-oxo-1,4-dihydro-1,8-naphthyridine-3-carboxamide]
EC50: 3.9 nM | Emax: 95%

CC[C@H](NC(=O)c1cn(-c2c(F)cc(F)cc2F)c2nc(N3CCCC[C@H]3CO)c(F)cc2c1=O)C(F)(F)F [Example 57, 6-Fluoro-7-[(2S)-2-(hydroxymethyl)piperidin-1-yl]-4-oxo-N-[(2S)-1,1,1-trifluorobutan-2-yl]-1-(2,4,6-trifluorophenyl)-1,4-dihydro-1,8-naphthyridine-3-carboxamide]
EC50: 78.5 nM | Emax: 89%

O=C(N[C@@H](C1CC1)C(F)(F)F)c1cn(-c2c(F)cc(F)cc2F)c2nc(N3CC4(COC4)C3)c(F)cc2c1=O [Example 83, N-[(1S)-1-Cyclopropyl-2,2,2-trifluoroethyl]-6-fluoro-7-(2-oxa-6-azaspiro[3.3]hept-6-yl)-4-oxo-1-(2,4,6-trifluorophenyl)-1,4-dihydro-1,8-naphthyridine-3-carboxamide]
EC50: 44 nM | Emax: 94%

CC(NC(=O)c1cn(-c2c(F)cc(F)cc2F)c2nc(N3CCOCC3)c(F)cc2c1=O)C(F)(F)C(F)(F)F (racemic) [Example 146, 6-Fluoro-7-(morpholin-4-yl)-4-oxo-N-[3,3,4,4,4-pentafluorobutan-2-yl]-1-(2,4,6-trifluoro-phenyl)-1,4-dihydro-1,8-naphthyridine-3-carboxamide]
EC50: 12 nM | Emax: 100%

O=C(NC(C1CC1)C(F)(F)C(F)(F)F)c1cn(-c2c(F)cc(F)cc2F)c2nc(N3CC4(COC4)C3)c(F)cc2c1=O (single isomer, unassigned) [Example 206, N-[1-cyclopropyl-2,2,3,3,3-pentafluoropropyl]-6-fluoro-7-(2-oxa-6-azaspiro[3.3]hept-6-yl)-4-oxo-1-(2,4,6-trifluorophenyl)-1,4-dihydro-1,8-naphthyridine-3-carboxamide]
EC50: 10 nM | Efficiency: 100%

COC(=O)C12CCC(NC(=O)c3cn(-c4c(F)cc(F)cc4F)c4nc(N5C[C@@H](O)[C@H](O)C5)c(F)cc4c3=O)(CC1)C2 [Example 86, Methyl 4-[({7-[(3R,4R)-3,4-dihydroxypyrrolidin-1-yl]-6-fluoro-4-oxo-1-(2,4,6-trifluoro-phenyl)-1,4-dihydro-1,8-naphthyridin-3-yl}carbonyl)amino]bicyclo[2.2.1]heptane-1-carboxylate]
EC50: 14 nM | Emax: 95%

CC(NC(=O)c1cn(-c2c(F)cc(F)cc2F)c2nc(N3CC[C@H](O)C3)c(F)cc2c1=O)C(F)(F)C(F)(F)F (single isomer, unassigned) [Example 114]
EC50: 7 nM | Efficiency: 94%

O=C(N[C@@H](C1CC1)C(F)(F)F)c1cn(-c2c(F)cc(F)cc2F)c2nc(N3CCNCC3)c(F)cc2c1=O [Example 81, N-[(1S)-1-Cyclopropyl-2,2,2-trifluoroethyl]-6-fluoro-4-oxo-7-(piperazin-1-yl)-1-(2,4,6-trifluorophenyl)-1,4-dihydro-1,8-naphthyridine-3-carboxamide]
EC50: 150 nM | Emax: 87%

Cc1cc(F)cc(C)c1-n1cc(C(=O)N[C@H](C2CC2)C(F)(F)F)c(=O)c2cc(F)c(N3C[C@@H](O)CC3=O)nc21 [Example 177, N-[(1R)-1-Cyclopropyl-2,2,2-trifluoroethyl]-6-fluoro-1-(4-fluoro-2,6-dimethylphenyl)-7-[(4S)-4-hydroxy-2-oxopyrrolidin-1-yl]-4-oxo-1,4-dihydro-1,8-naphthyridine-3-carboxamide]
EC50: 530 nM | Emax: 77%

CCC(COC(F)(F)F)NC(=O)c1cn(-c2c(F)cc(F)cc2F)c2nc(N3CC[C@H](O)C3)c(F)cc2c1=O (single isomer, unassigned) [Example 110]
EC50: 19 nM | Emax: 100%

O=C(NC(C(F)(F)F)C(F)(F)F)c1cn(-c2c(F)cc(F)cc2F)c2nc(N3CCC(O)(CO)CC3)c(F)cc2c1=O [Example 189, 6-Fluoro-N-(1,1,1,3,3,3-hexafluoropropan-2-yl)-7-[4-hydroxy-4-(hydroxymethyl)piperidin-1-yl]-4-oxo-1-(2,4,6-trifluorophenyl)-1,4-dihydro-1,8-naphthyridine-3-carboxamide]
EC50: 30 nM | Emax: 100%

CC(NC(=O)c1cn(-c2c(F)cc(F)cc2F)c2nc(N3C[C@@H](O)[C@H](O)C3)c(Br)cc2c1=O)C(F)(F)C(F)(F)F (stereo partly drawn) [Example 158, 6-Bromo-7-[(3R,4R)-3,4-dihydroxypyrrolidin-1-yl]-4-oxo-N-[3,3,4,4,4-pentafluorobutan-2-yl]-1-(2,4,6-trifluorophenyl)-1,4-dihydro-1,8-naphthyridine-3-carboxamide]
EC50: 3.7 nM | Emax: 100%

CCC(NC(=O)c1cn(-c2c(F)cc(F)cc2F)c2nc(N3C[C@@H](O)[C@H](O)C3)c(F)cc2c1=O)C(C)C (single isomer, unassigned) [Example 30]
EC50: 2.6 nM | Efficiency: 100%

O=C(N[C@@H](C1CC1)C(F)(F)F)c1cn(-c2c(F)cc(F)cc2F)c2nc(N3CCCC3)c(F)cc2c1=O [Example 231, N-[(1S)-1-cyclopropyl-2,2,2-trifluoroethyl]-6-fluoro-4-oxo-7-(pyrrolidin-1-yl)-1-(2,4,6-tri-fluorophenyl)-1,4-dihydro-1,8-naphthyridine-3-carboxamide]
EC50: 4.8 nM | Emax: 82%

O=C(N[C@@H](C1CC1)C(F)(F)F)c1cn(-c2c(F)cc(F)cc2F)c2nc(N3CCCC[C@H]3CO)c(F)cc2c1=O [Example 58, N-[(1S)-1-Cyclopropyl-2,2,2-trifluoroethyl]-6-fluoro-7-[(2S)-2-(hydroxymethyl)piperidin-1-yl]-4-oxo-1-(2,4,6-trifluorophenyl)-1,4-dihydro-1,8-naphthyridine-3-carboxamide]
EC50: 104 nM | Emax: 90%
